# Experiments:
# [1] = Liver microsomal stability; format: in vitro ADME, mouse; settings: liver microsomes
# Description: Chromatography was performed using an Alliance pump system coupled to a Q-ToF Premiere (Waters Co., Milford, MA, USA). The mixture was separated on a Luna 5 µm C8(2) 100° A 150 × 2 mm from Phenomenex. The mobile phase consisted of 0.2% formic acid (FA) in water as solvent A and 0.2% FA in acetonitrile as solvent B at a flow rate of 200 μL/min. The gradient was as follows: 0–2 min (70% A and 30% B), 2–20 min (5% A and 95% B), 20–30 min (70% A and 30% B). The detection of analytes was achieved by electrospray ionization (ESI) in the positive mode with the appropriate MS/MS transitions, if necessary.
# Male mouse (CD-1) liver microsomes (Sigma-Aldrich, St. Louis, MO, USA) were used. All incubations were performed in duplicate in a shaking water bath at 37 °C. The incubation mixtures contained 1 μM compound with 1% DMSO used as a vehicle, mouse liver microsomes (0.3 mg of microsomal protein per mL), 5 mM MgCl2, 1 mM NADP, 5 mM glucose 6-phosphate, 0.4 U·mL^−1 glucose 6-phosphate dehydrogenase, and 50 mM potassium phosphate buffer (pH 7.4) in a final volume of 0.5 mL. Aliquots were removed at 0, 5, 10, 20, 30, and 40 min after microsome addition and the reaction was stopped by adding 200 μL of ice-cold acetonitrile. After two hours, the samples were centrifuged for 10 min at 10,000 rpm, and the supernatants were transferred in matrix tubes for LC-MS/MS analysis. LC-MS/MS analysis were carried out setting the m/z window around the value of the MH^+ of the unmodified compounds.
# Propranolol, known as a high hepatic clearance drug in rodents, was used as a quality-control compound for the microsomal incubations. The slope of the linear regression of the curve obtained reporting the natural logarithm of compound area versus incubation time (−k) was used in the conversion to in vitro t1/2 values by t1/2 = −ln(2)/k. In vitro intrinsic clearance (Clint expressed as μL/min/mg) was calculated according to the following formula: Clint = volume of reaction (µL)/t1/2(min)/protein of liver microsomes (mg). The percentage of unmodified compound has been calculated assuming the area of the compound peak at time 0 min as 100%.
# human GPBAR1 = target: T1, human GPBAR1 (Homo sapiens, UniProt Q8TDU6); assay: GPBAR1 transactivation (CRE luciferase reporter) assay in HEK293T cells; format: cell-based
# T1 construct: expressed in transfected cells; host or cells: HEK293T
# T1 sequence (Q8TDU6 1-330): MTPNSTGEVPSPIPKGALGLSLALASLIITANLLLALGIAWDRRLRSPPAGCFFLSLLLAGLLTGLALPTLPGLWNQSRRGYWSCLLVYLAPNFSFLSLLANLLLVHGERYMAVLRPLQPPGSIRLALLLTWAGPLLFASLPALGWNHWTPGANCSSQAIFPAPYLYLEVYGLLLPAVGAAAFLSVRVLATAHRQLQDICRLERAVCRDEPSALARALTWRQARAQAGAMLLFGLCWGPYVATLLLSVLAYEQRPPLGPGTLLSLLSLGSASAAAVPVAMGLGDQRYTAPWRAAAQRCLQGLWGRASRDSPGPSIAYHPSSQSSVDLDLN
# Description: To evaluate FXR mediated transactivation, HepG2 cells were transfected with 100 ng of human pSG5-FXR, 100 ng of human pSG5-RXR, 200 ng of the reporter vector p(hsp27)-TK-LUC containing the FXR response element IR1 cloned from the promoter of heat shock protein 27 (hsp27) and with 100 ng of pGL4.70 (Promega), a vector encoding the human Renilla gene. To evaluate GPBAR1 mediated transactivation, HEK293T cells were transfected with 200 ng of human pGL4.29 (Promega), a reporter vector containing a cAMP response element (CRE) that drives the transcription of the luciferase reporter gene luc2P, with 100 ng of pCMVSPORT6-human GPBAR1, and with 100 ng of pGL4.70. […] After treatments, 10 μL of cellular lysates were read using a Dual-Luciferase Reporter Assay System (Promega Italia srl, Milan, Italy) according manufacturer specifications using the Glomax20/20 luminometer (Promega Italia srl, Milan, Italy). Luciferase activities were assayed and normalized with Renilla activities.
# At 18 h post stimulations, cellular lysates were assayed for luciferase and Renilla activities using the Dual-Luciferase Reporter Assay System (E1980, Promega Italia srl, Milan, Italy). Luminescence was measured using Glomax 20/20 luminometer (Promega Iralia srl, Milan, Italy). Luciferase activities were normalized with Renilla activities.
smiles,measurement,setting,value
"CCC1C(O)C2C3CCC(C(C)CO)C3(C)CCC2C2(C)CCCCC12 (stereo not drawn) [compound 6, 6α-Ethyl-7α-hydroxy-23,24-dinor-5β-cholan-22-ol]",Percentage of compound remaining in solution after 40 min incubation,[1]; 40 min incubation,79.2%
same,microsomal CLint at 1 µM,"[1]; male, CD-1, mouse, pH 7.4, 1 μM compound, 37 °C",19.7 µL/min/mg
same,half-life at 1 µM,"[1]; male, CD-1, mouse, pH 7.4, 1 μM compound, 37 °C, read-out: t½",1.96 h
same,GPBAR1 Eff (%) vs 6-ECDCA,"human GPBAR1; maximum efficacy of compound (10 µM) relative to 6-ECDCA (1 µM) set as 100, CRE transactivation",87.5%
same,GPBAR1 Eff (%) vs TLCA,"human GPBAR1; maximum efficacy of compound (10 µM) relative to TLCA (10 μM) set as 100, CRE transactivation",19%

# Reference: article PMC6470523, “Introduction of Nonacidic Side Chains on 6-Ethylcholane Scaffolds in the Identification of Potent Bile Acid Receptor Agonists with Improved Pharmacokinetic Properties” (Molecules, 2019)
